From publication PMC7329864, “Role of water in cyclooxygenase catalysis and design of anti-inflammatory agents targeting two sites of the enzyme” (Scientific Reports, 2020)
Read-outs that look alike come from different tables or passages of the source.

Legend:
[1] = In-vivo pharmacokinetic studies
Procedure: Acute toxicity studies of 1 were carried out at 3 dose levels of 50 mg Kg^−1, 300 mg Kg^−1 and 2000 mg Kg^−1 by periodic monitoring for the first 24 h and daily monitoring for 14 days[56]. […] A few jumping movements were also observed. However, all these behaviours subsided after 60 min. […] Therefore, complying with the design and the results of in vitro studies, the in vivo experiments were gestured with the emergence of a new category of anti-inflammatory agents.
In-vivo Pharmacokinetic studies were performed as per the previously reported protocol.

COX-2 = target: T1, COX-2 (Homo sapiens, UniProt P35354); test: UV-Vis and fluorescence studies of interaction with COX-2; format: binding
T1 sequence (P35354 18-604): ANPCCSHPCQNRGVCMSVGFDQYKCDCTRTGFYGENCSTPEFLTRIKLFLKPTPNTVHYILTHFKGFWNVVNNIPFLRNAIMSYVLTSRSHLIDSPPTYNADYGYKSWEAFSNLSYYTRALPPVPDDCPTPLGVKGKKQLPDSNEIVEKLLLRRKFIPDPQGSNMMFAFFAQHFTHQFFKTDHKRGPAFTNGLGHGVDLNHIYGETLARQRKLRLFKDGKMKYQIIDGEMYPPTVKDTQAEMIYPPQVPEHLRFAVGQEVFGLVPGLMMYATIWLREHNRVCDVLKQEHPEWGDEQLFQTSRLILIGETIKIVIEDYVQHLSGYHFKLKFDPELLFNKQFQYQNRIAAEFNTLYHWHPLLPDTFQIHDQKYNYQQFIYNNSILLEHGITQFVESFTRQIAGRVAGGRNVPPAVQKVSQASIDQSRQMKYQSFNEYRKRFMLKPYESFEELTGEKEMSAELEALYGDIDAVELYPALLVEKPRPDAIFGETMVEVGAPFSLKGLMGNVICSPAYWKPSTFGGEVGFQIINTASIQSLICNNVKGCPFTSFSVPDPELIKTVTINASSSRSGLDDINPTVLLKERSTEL
Source text: In order to support in-silico experiments, the interactions of 1, 13d and 15d with COX-2 were checked with UV–vis and fluorescence spectral techniques. […] The appearance of level-off in the visible region (500–700 nm) was attributed to the Mie scattering due to the formation of aggregates. […] Corroborating the results of molecular modelling studies, the changes in the UV–Vis spectra as well as the fluorescence spectrum of the compound on addition of COX-2 probably occurred due to the HOMO–LUMO interactions between 1 and the enzyme (Figure S26). The linear Stern–Volmer plot of decrease in fluorescence intensity at 567 nm on increasing COX-2 concentration gave Stern–Volmer constant Ksv 3.30 × 10^4 M^-1. The detection limit of the compound for COX-2 was 0.02 nM (Figure S26C,D).
In order to support in-silico experiments, the interactions of 1, 13d and 15d with COX-2 were checked with UV-vis and fluorescence spectral techniques. […] The appearance of level-off in the visible region (500-700 nm) was attributed to the Mie scattering due to the formation of aggregates. […] Corroborating the results of molecular modelling studies, the changes in the UV-Vis spectra as well as the fluorescence spectrum of the compound on addition of COX-2 probably occurred due to the HOMO-LUMO interactions between 1 and the enzyme (Figure S27). The linear Stern-Volmer plot of decrease in fluorescence intensity at 567 nm on increasing COX-2 concentration gave Stern-Volmer constant Ksv 3.30x10^4 M^-1. The detection limit of the compound for COX-2 was 0.02 nM (Figure 27C, 27D).

O=C1NC(=O)C(=Cc2cn(CCCCCCn3c4ccccc4c(=O)c4ccccc43)c3ccccc23)C(=O)N1 [Compound 1]
Cmax ([1]; Animal 1): 3150 nM
Tmax ([1]; Animal 1): 30 min
AUC(0-t) ([1]; Animal 1, read-out: AUC(0–1440 min) (converted)): 21.4 µM·h
half-life ([1]; Animal 1, read-out: T1/2): 671 min
Cmax ([1]; Animal 2): 2860 nM
Tmax ([1]; Animal 2): 15 min
AUC(0-t) ([1]; Animal 2, read-out: AUC(0–1440 min) (converted)): 19.7 µM·h
half-life ([1]; Animal 2, read-out: T1/2): 418 min
Cmax ([1]; Animal 3): 2600 nM
Tmax ([1]; Animal 3): 30 min
AUC(0-t) ([1]; Animal 3, read-out: AUC(0–1440 min) (converted)): 20.2 µM·h
half-life ([1]; Animal 3, read-out: T1/2): 521 min
Tmax ([1]; Mean): 25 min
AUC(0-t) ([1]; Mean, read-out: AUC(0–1440 min) (converted)): 20.4 µM·h
half-life ([1]; Mean, read-out: T1/2): 537 min
half-life ([1]; read-out: half life (T1/2) (converted)): ~540 min
decrease in fluorescence intensity (quenching) in the presence of COX-2 (COX-2; addition of COX-2 in Tris–HCl buffer pH 7.25 to solution of compound): significant quenching
detection limit of the compound for COX-2 (COX-2; fluorescence intensity at 567 nm vs [COX-2], Tris–HCl buffer pH 7.25): 0.02 nM
Stern–Volmer constant Ksv (COX-2; fluorescence quenching at 567 nm by COX-2, 0.5 µM compound, Tris–HCl buffer pH 7.25): 33000 M⁻¹
